Source: patent publication US20250197428A1, “INHIBITORS OF KIF18A AND USES THEREOF” (ACCENT THERAPEUTICS, INC., priority 2022, published 2025)
Like-named read-outs stand apart in the source and are kept apart here.

Legend:
[1] = target: KIF18A (Homo sapiens (Human), UniProt Q8NI77); assay: KIF18A Biochemical Assay (ATPase, ADP-Glo)
[2] = Bone marrow concentration in 28 day OVCAR-3 xenograft study; type: in vivo, mice; conditions: NOD SCID, mouse, 28 day study; for concentration at 6 h: read-out: Bone marrow concentration at 6 h post-last dose; for concentration at 24 h: read-out: Bone marrow concentration at 24 h post-last dose
Method: On Day 28, tissues were collected from animals. About 30-60 μL of whole blood was collected into tubes containing EDTA anticoagulant, and plasma was harvested by centrifugation at 4,000 g×5 min and stored at −80° C. until analysis. Plasma analysis followed the same protocol as for the Day 1 plasma analysis. Additionally, the femurs of the mice were cut and put in pre-weighed tubes. The bone marrow was harvested by centriguation at 8,000 g×15 min. Then, the total weight of both the bone marrow and the tube was recorded. The bone marrow was stored at −80° C. until analysis.
Samples were collected from animals 6 h after the last dose of compound and at 24 h after the last dose of compound.

[3] = In vivo pharmacokinetic evaluation in mouse; design: species or system female balb/c nude mice
[4] = Tolerability (body weight) in 28 day OVCAR-3 xenograft study; type: in vivo; conditions: all concentrations dosed, 28 day treatment
[5] = Caco-2 permeation assay, bidirectional permeability; type: in vitro ADME; conditions: human, Caco-2, pH 7.4, 5 μM, Papp(B-A)/Papp(A-B)
In short: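 Bidirectional A→B and B→A transport of 5 μM compound in HBSS (10 mM HEPES, pH 7.4), receiver containing 2% BSA, 2 h at 37 °C on 14-day monolayers. Papp from LC-MS/MS peak areas; efflux ratio Papp(B-A)/Papp(A-B), plus recovery. Lucifer Yellow leakage <1% required for monolayer acceptance.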

[6] = tested on: human megakaryocyte (CFU-MK) progenitors from human bone marrow mononuclear cells; assay: Human megakaryocyte progenitor colony formation assay (CFU-MK); type: cell-based; conditions: 336 h, 14 days culture, adjusted for binding to assay buffer, read-out: Free-fraction adjusted CFU-MK IC50

KIF18A, sequence (Q8NI77 1-367): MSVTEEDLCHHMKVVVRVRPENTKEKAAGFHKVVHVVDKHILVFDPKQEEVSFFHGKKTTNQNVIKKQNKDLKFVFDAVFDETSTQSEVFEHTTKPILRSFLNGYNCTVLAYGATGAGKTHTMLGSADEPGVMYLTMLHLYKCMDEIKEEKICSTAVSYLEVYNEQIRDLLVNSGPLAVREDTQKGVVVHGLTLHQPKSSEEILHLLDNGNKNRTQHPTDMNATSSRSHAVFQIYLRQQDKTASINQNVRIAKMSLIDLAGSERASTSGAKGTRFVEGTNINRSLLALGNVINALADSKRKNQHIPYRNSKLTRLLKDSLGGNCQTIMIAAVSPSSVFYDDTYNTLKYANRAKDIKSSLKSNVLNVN
KIF18A, sequence (P02550 whole entry partner): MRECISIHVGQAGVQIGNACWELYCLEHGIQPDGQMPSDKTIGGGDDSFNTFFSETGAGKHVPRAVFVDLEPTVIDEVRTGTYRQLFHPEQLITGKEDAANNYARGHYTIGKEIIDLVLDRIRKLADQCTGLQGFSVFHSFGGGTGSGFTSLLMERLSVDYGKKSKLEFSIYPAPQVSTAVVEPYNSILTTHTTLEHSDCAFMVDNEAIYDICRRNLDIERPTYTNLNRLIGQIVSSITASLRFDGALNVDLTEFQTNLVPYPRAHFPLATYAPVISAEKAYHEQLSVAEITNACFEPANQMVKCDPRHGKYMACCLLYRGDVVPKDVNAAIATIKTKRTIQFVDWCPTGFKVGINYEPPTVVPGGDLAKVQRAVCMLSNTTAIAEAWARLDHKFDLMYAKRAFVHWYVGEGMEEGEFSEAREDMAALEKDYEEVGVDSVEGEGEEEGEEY
KIF18A, sequence (P02554 whole entry partner): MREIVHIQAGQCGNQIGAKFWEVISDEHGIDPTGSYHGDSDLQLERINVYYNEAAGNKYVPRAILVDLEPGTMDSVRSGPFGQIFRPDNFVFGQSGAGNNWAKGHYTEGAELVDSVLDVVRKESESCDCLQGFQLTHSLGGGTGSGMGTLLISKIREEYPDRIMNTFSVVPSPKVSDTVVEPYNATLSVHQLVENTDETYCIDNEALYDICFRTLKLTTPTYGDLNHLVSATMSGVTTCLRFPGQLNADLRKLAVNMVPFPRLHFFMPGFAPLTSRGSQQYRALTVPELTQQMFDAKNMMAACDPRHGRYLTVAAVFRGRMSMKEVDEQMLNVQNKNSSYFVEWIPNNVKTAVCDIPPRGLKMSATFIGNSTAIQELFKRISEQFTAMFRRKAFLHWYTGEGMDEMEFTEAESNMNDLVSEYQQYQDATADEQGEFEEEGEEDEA

`Cc1cc(NC(=O)c2ccc(NS(=O)(=O)CCO)cc2N2CC[C@@]3(C(F)F)C[C@H]3C2)nc(N2CCC(F)(F)CC2)n1` (single isomer, unassigned) [Example 29b] showed an IC50 [1] of less than 0.1 µM, a concentration at 6 h ([2]; 10 mg/kg QD oral) of 2800 ng/g and a concentration at 24 h ([2]; 10 mg/kg QD oral) of 210 ng/g. For the same molecule, the concentration at 6 h ([2]; 30 mg/kg QD oral) was 10500 ng/g, the concentration at 24 h ([2]; 30 mg/kg QD oral) was 900 ng/g and the “IV Clearance” value ([3]; 3 mg/kg IV) was 3.3 mL/ming/kg. It also gave a Vd ([3]; female, balb/c nude, plasma, 3 mg/kg IV, read-out: IV Vss) of 0.97 L/kg, a Cmax ([3]; female, balb/c nude, plasma, 10 mg/kg PO) of 4.7 µg/mL and a half-life ([3]; female, balb/c nude, plasma, 10 mg/kg PO, read-out: PO T1/2 (converted)) of 3.7 h. The “Tolerability based on body weight” value [4] was “well tolerated”, the efflux ratio at 2 h, 5 μM [5] was no less than 10 and the IC50 [6] was 0.11 µM.
